pIC50: −log10 of the molar value. The source made the active and inactive calls. No cut-off for these calls is given here.
Columns and labels:
[1] = Metabolic stability in dog assessed as intrinsic hepatic clearance by LC/MS-MS analysis; assay type: ADME, Canis lupus familiaris; settings: read-out: CLH
Rattus norvegicus = assay: Anti-arthritic activity in Sprague-Dawley rat model of acute gout arthritis assessed as reduction in MSU-induced synovial hyperplasia at 1 mg/kg, ia administered 1 hr before MSU challenge and measured upto 24 hrs by hematoxylin and eosin staining based histopathological analysis; assay type: functional, organism-based
Homo sapiens [2] = species on record: Homo sapiens; assay: Selectivity index, ratio of IC50 BRD2 BD1 (unknown origin) to IC50 for recombinant human N-terminal His-tagged BRD4 BD1 (44 to 170 residues) expressed in Escherichia coli by AlphaScreen assay
[3] = molecular target: Bromodomain-containing protein 4 (Homo sapiens, UniProt O60885); assay: Displacement of tetra-acetylated histone H4 peptide (1-21) from recombinant human N-terminal His-tagged BRD4 BD1 (44 to 170 residues) expressed in Escherichia coli incubated for 30 mins followed by further incubation with tetra-acetylated histone H4 peptide (1-21) for 30 mins by Alphascreen assay
[4] = Metabolic stability in monkey assessed as intrinsic hepatic clearance by LC/MS-MS analysis; assay type: ADME, Macaca mulatta; settings: rhesus monkey; read-out: CLH
Homo sapiens [5] = species on record: Homo sapiens; assay: Selectivity index, ratio of IC50 for BRD2 BD2 (unknown origin) to IC50 for recombinant human N-terminal His-tagged BRD4 BD1 (44 to 170 residues) expressed in Escherichia coli by AlphaScreen assay
[6] = Metabolic stability in rat assessed as intrinsic hepatic clearance by LC/MS-MS analysis; assay type: ADME; settings: read-out: CLH

With `COc1ccccc1S(=O)(=O)Nc1ccc2c3c(cc(-n4cnc(C)c4)nc13)C(=O)N2C` the CLint scaled [1] was 192 mL/min/kg, the inhibition (Rattus norvegicus) was “Active” and the Ratio IC50 (Homo sapiens [2]) was 102. For the same compound, the pIC50 [3] was 7.06, the CLint scaled [4] was 194 mL/min/kg and the Ratio IC50 (Homo sapiens [5]) was 244. The CLint scaled [6] was 264 mL/min/kg.

Source: ChEMBL document CHEMBL4354830, “Discovery of Benzo[cd]indol-2(1H)-ones and Pyrrolo[4,3,2-de]quinolin-2(1H)-ones as Bromodomain and Extra-Terminal Domain (BET) Inhibitors with Selectivity for the First Bromodomain with Potential High Efficiency against Acute Gouty Arthritis” (J Med Chem, 2019)
